Experimental data as given in patent US20230014226A1, “NEW COMPOUNDS AND METHODS” (BenevolentAI Bio Limited, priority 2019, published 2023).

Legend:
[1] = system: α-synuclein in ReNcell VM Neuronal cells; experiment: Modulation of α-synuclein aggregation; type: cell-based
Experimental: Compounds were assessed for their ability to modulate α-synuclein aggregation. ReNcell VM Neuronal cells were transduced with α-synuclein encoded adenovirus, and compounds were added after 24 hours. After 72 hours, compound was refreshed. After an additional 72 h, cells were fixated (a total of 6 days of compound treatment). Two distinct α-synuclein antibodies were added (Syn205 and MJF-14), imaging was performed on IN Cell 2200 at 10× magnification. Immunoreactivity is quantified by a high content algorithm. Compound data is normalized to a negative control (0.1% DMSO) and a positive control (10 μM KU0063794; CAS 938440-64-3).

[2] = system: HUVEC (human umbilical venous endothelial cells); experiment: HUVEC Tube Formation assay; type: cell-based; conditions: 18 h incubation, read-out: Tube formation GI50
Experimental: HUVEC (human umbilical venous endothelial cells, 1.5×10^4/well, ATCC CRL-1730) are placed in an earlier prepared 96-well plate. Test substance and/or vehicle is then added to each well in a final concentration of 0.4% DMSO in growth medium under an atmosphere of 5% CO2 at 37° C. After an 18 h incubation period, morphology of the endothelial cell tubes, which resemble a capillary-like network, are evaluated by a confocal high-content imaging system. Disruption (anti-angiogenesis) of total tube length is measured from each photograph and determined relative to the vehicle control group. […] Compounds are screened at 30, 3, 0.3, 0.03 and 0.003 μM (or μg/mL) in triplicate.

[3] = system: murine Hb9-GFP+ motor neurons in co-culture with ALS patient iAstrocytes; experiment: Human iAstrocyte - murine Hb9-GFP+ motor neuron co-culture; type: cell-based, human iAstrocytes
Excerpt: iNPCs (induced Neuronal Progenitor Cells) were derived from ALS patient fibroblasts as described previously (Meyer et al. 20148). iNPCs were differentiated into iAstrocytes by culturing in iAsrocyte media for at least 5 days. Murine motor neurons expressing the green fluorescent protein (GFP) under the Hb9 motor neuron-specific promoter (called from now on Hb9-GFP+) were differentiated from murine embryonic stem cells via embryoid bodies (EBs), as previously described (Haidet-Phillips et al. 20119, Wichterle et al. 200210).
iNPCs and mESC were split into iAstrocyte media and mEB media respectively on the same day, such that iAstrocytes and motor neurons will have both differentiated for 7 days when seeded together in co-culture.
Changed media on iAstrocytes, and split using accutase if 90-100% confluent 3 days after seeding from iNPCs. iAstrocytes were left a further 2 days in iAstrocyte media until seeded onto 384-well plates.
Diluted fibronection 1:400 in PBS, and 5 μL added per well. The plate was incubated with fibronectin at room temp for at least 5 mins.
The media was removed from iAstrocytes, and washed in PBS. 1 mL accutase per 10 cm plate was added, and incubated at 37° C. for 4 mins. The plate was tapped to dislodge any remaining iAstrocytes. The iAstrocytes were resuspended in iAstro media, and centrifuged at 200×g for 4 mins. The supernatant was removed, the falcon was flicked to vortex the cells, and resuspended the cells in an appropriate amount of iAstrocyte media. Counted cells using the haemocytometer, and diluted cells to an appropriate dilution for seeding. Seeded 1-2,000 iAstrocytes in 35 μL media on fibronectin-coated 384-well plates. Centrifuged 384-well plates at 1,760×rpm for 60 s using a PK120 (ALC) centrifuged (in neurogenetics) to collect media and cells to base of wells. Plates were left for 24 h for iAstrocytes to adhere to plate.
Drugs were delivered in 100% drug-grade DMSO to iAstrocyte media using an Echo550 liquid handler (Labcyte). 384-well plates were centrifuged at 1,760×rpm for 60 s using a PK120 (ALC) centrifuge.
2 plates of EBs were collected in a 50 mL tube and centrifuged for 4 mins at 200×g. The supernatant was removed from EBs after centrifugation, and washed in 10 mL PBS then centrifuged again for 4 mins at 200×g, and PBS wash removed.
For each 50 mL tube, 2.75 mL EB dissociation buffer was added and then 250 μL 200 U/mL (10×) Papain. The solution was gently pipetted up and down 10 times, using a P1000 pipette, against the side of the falcon (EB pellet was not pipetted directly). 50 mL tube was put in 37° C. water bath and incubated for 5 mins. Tube removed every 3 mins and gently shaken. After 5 mins, additional 2 mL of EB dissociation and 100 μL 200 U/mL (10×) Papain were added, which was then pipette again 5 times with P1000 pipette, and returned to the water bath for another 5 mins. It was returned to water bath as before, and incubated for no longer than 15-20 mins.
Centrifuged for 5 mins at 300×g. Each 50 mL tube, 2.7 mL EB dissociation was prepared, to which 300 μL FBS and 150 μL 0.5 mg/mL DNaseI was added. The supernatant was removed from dissociated EBs and 3 mL of the FBS/DNaseI mix was added, pipetted up and down with P1000 pipette about 5 times. 5 mL FBS was added very slowly to the bottom of the falcon containing the dissociated EBs. The supernatant was removed and the cells very gently resuspended in about 3 mL MN media (more used if the pellet is large) and filtered through a 40 μm filter. 1 mL extra MN media was added to wash the filter.
2,500 murine Hb9-GFP+ motor neurons were seeded per well in 10 μL motor neuron media on top of the pre-treated iAstrocytes. 384-well plates were centrifuged at 1,760×rpm for 60 s using a PK120 (ALC) centrifuge.
Day8 15 μL motor neuron media were added per well. Hb9-GFP+ motor neurons were imaged using an INCELL analyser 2000 (GE Healthcare)—day 1 of co-culture. […]

hERG ion channel = hERG ion channel (Homo sapiens, UniProt Q12809); experiment: hERG QPatch automated patch clamp; type: cell-based; conditions: CHO cells stably expressing hERG, QPatch 48, tail current
Experimental: hERG IC50 data was supplied by Metrion using their standard assay protocol briefly detailed below.
hERG ion channel screening was assayed in CHO cells stably expressing the human ether-á-go-go related gene, using the QPatch 48 automated, chip-based planar patch clamp device. A Gigaohm seal between the cell membrane and treated silicon surface was obtained and specific external and internal buffered solutions applied to cells prior to recording. Following baseline vehicle treatment, compounds were applied in increasing concentrations (8 pt CRC), effects on hERG tail current amplitudes were measured in two-minute recordings.

hERG ion channel, sequence (Q12809 whole entry): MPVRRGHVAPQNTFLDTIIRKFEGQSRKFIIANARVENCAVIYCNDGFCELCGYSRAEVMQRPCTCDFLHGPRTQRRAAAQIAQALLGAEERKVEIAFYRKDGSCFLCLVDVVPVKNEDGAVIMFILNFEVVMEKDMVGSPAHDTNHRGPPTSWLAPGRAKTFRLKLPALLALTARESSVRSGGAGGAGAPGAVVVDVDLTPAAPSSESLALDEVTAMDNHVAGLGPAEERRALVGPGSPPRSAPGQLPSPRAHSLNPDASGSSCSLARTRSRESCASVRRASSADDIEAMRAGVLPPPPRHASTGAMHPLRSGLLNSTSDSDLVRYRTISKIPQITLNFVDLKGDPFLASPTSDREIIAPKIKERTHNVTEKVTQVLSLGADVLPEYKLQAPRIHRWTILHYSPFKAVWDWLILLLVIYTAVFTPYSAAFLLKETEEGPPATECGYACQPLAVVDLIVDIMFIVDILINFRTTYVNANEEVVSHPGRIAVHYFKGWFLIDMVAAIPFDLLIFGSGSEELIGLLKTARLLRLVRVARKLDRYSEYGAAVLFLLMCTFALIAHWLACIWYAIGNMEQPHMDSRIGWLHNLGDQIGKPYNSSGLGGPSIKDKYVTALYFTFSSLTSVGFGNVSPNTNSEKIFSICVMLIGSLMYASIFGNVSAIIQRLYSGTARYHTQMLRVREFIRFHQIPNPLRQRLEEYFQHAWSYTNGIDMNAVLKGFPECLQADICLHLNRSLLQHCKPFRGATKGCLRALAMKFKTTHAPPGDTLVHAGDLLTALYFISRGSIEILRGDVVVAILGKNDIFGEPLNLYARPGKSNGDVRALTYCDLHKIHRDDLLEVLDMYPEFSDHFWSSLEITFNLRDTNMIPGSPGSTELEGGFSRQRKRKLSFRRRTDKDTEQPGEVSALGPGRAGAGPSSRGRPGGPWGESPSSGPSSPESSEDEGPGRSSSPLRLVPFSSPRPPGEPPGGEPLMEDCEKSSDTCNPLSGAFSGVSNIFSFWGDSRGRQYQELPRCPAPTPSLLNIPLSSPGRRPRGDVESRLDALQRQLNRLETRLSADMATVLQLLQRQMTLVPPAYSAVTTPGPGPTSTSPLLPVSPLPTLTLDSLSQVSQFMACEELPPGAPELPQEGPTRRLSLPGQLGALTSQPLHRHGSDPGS

IC50 ([1]; ReNcell VM, 100% = reduction equal to 10 μM KU0063794, 0% = 0.1% DMSO): 1 to 10 µM
SMILES: Cc1ccc(C(=O)Nc2cn(C(C)C)cn2)cc1C#Cc1cccnc1 [Example 25, N-(1-isopropylimidazol-4-yl)-4-methyl-3-[2-(3-pyridyl)ethynyl]benzamide]
amount of α-synuclein present in ReNcell VM neuronal cells (FIG. 4) ([1]; 6 days of compound treatment, antibodies Syn205 and MJF-14): dose dependant reduction
GI50 [2]: > 10 µM
rescue of motor neuron survival in co-culture with patient-derived iAstrocytes (FIG. 3) ([3]; 72 hours co-culture, dose dependant, maximum responses close to positive control (1 μM Nilotinib)): rescue motor neuron survival
efficacy at very high concentrations (motor neuron survival) ([3]; potentially due to compound toxicity): reduction in efficacy at very high concentrations
IC50 (hERG ion channel): > 10 µM
